According to publication PMC6920875, “Dithiocarbamate as a Valuable Scaffold for the Inhibition of Metallo-β-Lactmases” (Biomolecules, 2019):
pKi: −log10 of the molar value.

Key:
[1] = system: mouse fibroblast cells (L-929); test: Cytotoxicity assay (MTT); type: cell-based; details: concentration as high as 250 μM, 48 h
Description: The cytotoxicity assays were performed to evaluate the toxicity of DC1, DC3, DC7 and DC9 in mouse fibroblast cells (L-929). The cells were seeded into 96-well plates at a cell density of 1.0 × 10^4 cells/well, in 100 μL of culture medium and maintained for 24 h. Then, the inhibitors with working concentrations (15.6, 31.25, 62.5, 125, 250, and 500 μM) were added to the 96-well plates and incubated for another 48 h. Three wells containing only cells were suspended in a mixture solution of 98 μL complete medium, as controls for cell viability without inhibitors. Three wells containing only the complete medium were used as blank controls. Following that, the medium was removed, and 100 μL of fresh culture medium and 10 μL MTT were added to each well. After incubation for 4 h, the trays were then vigorously shaken to solubilize the formed product, and the absorbance, at a wavelength of 490 nm, was read on a microplate reader and analyzed. All experiments were conducted in triplicate, and the data are expressed as mean ± standard deviation.
The potential toxicity of dthiocarbamates DC1, DC3, DC7 and DC9 as representatives was assayed using the mouse fibroblast cells (L929) treated with different concentrations of inhibitors (15.625, 31.25, 62.5, 125, 250 and 500 μM).

[2] = target: T1, NDM-1 (Klebsiella pneumoniae, UniProt C7C422); test: Time-dependence inhibition experiment, residual activity; type: biochemical; details: 13 nM NDM-1 incubated with inhibitor at its IC50 for 8 h
T1 construct: made in house; host or cells: E. coli BL21 (DE3), plasmid pET26b-NDM-1

[3] = target: T1, NDM-1; test: Isothermal titration calorimetry (ITC) of MβL-catalysed substrate hydrolysis; type: biochemical; details: 150 nM enzyme, 1 mM cefazolin, inhibitor 0-200 μM, 25 °C
Description: (§1) Isothermal titration calorimetry (ITC) assays were performed on a Malvern MicroCal iTC 200 instrument (Malvern Instruments, Malvern, UK) at 25 °C, by a single injection mode. During ITC experiments the reference cell was filled with degassed water. The MβLs, substrates, and inhibitor DC1 were prepared with 50 mM Tris, pH 7.0. The concentration of MβLs used was in the range 100–200 nM, concentration of substrate was 1 mM, and concentrations of DC1 were varied between 0 and 200 µM. Before starting the measurement, the enzyme was pre-incubated with different concentrations of DC1 for 5 min, and then delivered into the sample cell (210 µL). The hydrolysis reaction in the absence of inhibitors was also determined as a control. The stirring rate of the syringe was set to 750 rpm. The system was equilibrated at the desired 25 °C. […] Heat flow was recorded as a function of time. Data were collected every 1 s until the signal reached the baseline and continued to be recorded for the length of time necessary to generate the final baseline.
(§2) Isothermal titration calorimetry (ITC) was also employed, to identify the inhibition of the dithiocarbamates on MβLs and study their thermodynamic behaviour. […]

[4] = target: T2, L1 (Stenotrophomonas maltophilia, UniProt P52700); test: as above; type: biochemical; details: 100 nM enzyme, 1 mM cefazolin, inhibitor 0-200 μM, 25 °C
T2 construct: made in house; host or cells: E. coli BL21 (DE3), plasmid pET-26b-L1
Description: as §1, §2

[5] = target: T3, ImiS (Aeromonas veronii, UniProt O31272); test: biochemical; parameters: species or system Aeromonas veronii bv. sobria; details: read-out: inhibition against ImiS
T3 construct: made in house; host or cells: E. coli BL21 (DE3), plasmid pET-26b-ImiS
Description: (§3) The dithiocarbamates, MβLs and substrates samples were prepared with 30 mM Tris, pH 7.0. […] Enzymes and inhibitors were pre-incubated for 5 min before adding substrate. […] The IC50 values were nonlinearly fitted by plotting the average percentage inhibition against inhibitor concentration. The inhibition modes of DC1 to ImiS, NDM-1 and L1 were assayed by generating Lineweaver–Burk plots, and Ki values were obtained by fitting initial velocity versus substrate concentration at each inhibitor concentration, using SigmaPlot 12.0 (Systat Software Inc., San Jose, CA, USA).
To evaluate the inhibitory activity of the dithiocarbamates, we over-expressed and purified MβLs NDM-1, VIM-2 and IMP-1 (B1), ImiS (B2), and L1 (B3) from three subclasses as previously reported. The inhibition experiments were performed with an Agilent UV8453 spectrometer. […] The concentrations of inhibitors were varied between 0 and 200 μM. The initial reaction rates were determined in the absence and presence of inhibitors in triplicate, and the generated average values were recorded.
Target sequence in this assay (O31272 28-255 limits assumed): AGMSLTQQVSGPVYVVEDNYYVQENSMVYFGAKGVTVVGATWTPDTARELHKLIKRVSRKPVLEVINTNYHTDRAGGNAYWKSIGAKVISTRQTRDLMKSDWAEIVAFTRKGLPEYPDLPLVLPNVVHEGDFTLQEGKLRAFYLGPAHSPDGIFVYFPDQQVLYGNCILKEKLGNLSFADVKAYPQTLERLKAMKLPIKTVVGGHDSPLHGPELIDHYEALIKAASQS

[6] = target: T3, ImiS; test: Inhibition kinetics, Lineweaver–Burk plots; type: biochemical, Aeromonas veronii bv. sobria
Description: as §3
Target sequence in this assay (O31272 28-255): as the sequence (O31272 28-255 limits assumed) above
To further identify the inhibition mode of the DCs against MβLs, we performed inhibition kinetics of NDM-1, ImiS and L1 by DC1, at different concentrations, with different substrate concentrations. […] Enzyme and inhibitors were pre-incubated for 5 min before starting the kinetic assays. All experimental hydrolytic rates of substrates were determined in triplicate. The inhibition mode of dithiocarbamates on MβLs was identified by generating Lineweaver–Burk plots, and Ki values were gained by fitting the initial velocity versus substrate concentration at each inhibitor concentration, using SigmaPlot 12.0.

T1 sequence (C7C422 29-270 limits assumed): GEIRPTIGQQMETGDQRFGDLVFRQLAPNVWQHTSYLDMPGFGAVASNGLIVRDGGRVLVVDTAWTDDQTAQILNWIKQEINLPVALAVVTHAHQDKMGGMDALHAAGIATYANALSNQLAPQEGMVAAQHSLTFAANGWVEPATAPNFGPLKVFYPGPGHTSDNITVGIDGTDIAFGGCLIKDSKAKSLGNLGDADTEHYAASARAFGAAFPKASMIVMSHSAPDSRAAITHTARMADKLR
T2 sequence (P52700 34-290): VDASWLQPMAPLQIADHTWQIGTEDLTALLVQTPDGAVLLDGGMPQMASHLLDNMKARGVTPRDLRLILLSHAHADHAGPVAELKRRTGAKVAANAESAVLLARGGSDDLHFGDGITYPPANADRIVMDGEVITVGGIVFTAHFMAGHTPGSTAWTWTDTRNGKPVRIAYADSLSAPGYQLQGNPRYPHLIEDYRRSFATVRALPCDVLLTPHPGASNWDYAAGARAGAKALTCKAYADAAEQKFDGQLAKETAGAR

## O=C(NNC(=S)[S][K])c1ccccc1O [DC1]
[1]
  survival rate of L929 mouse cells: higher than 80%
[2]
  time dependence of NDM-1 inhibition (residual activity): no time-dependent inhibition
[3]
  reversibility of inhibition of NDM-1 by ITC (total heat Q constant): reversible
[4]
  reversibility of inhibition of L1 by ITC (total heat Q constant): reversible
[5]
  inhibition at 40 µM: > 90%
other
  melting point: 264 to 265 °C
[6]; Lineweaver–Burk plots
  inhibition mode against ImiS: partially mixed inhibition
[6]; read-out: Ki against ImiS, imipenem 20-120 µM, inhibitor 0-20 μM, SigmaPlot fit
  pKi: 6.85
